Experimental data: patent US20120295907A1, “INSECTICIDAL COMPOUNDS” (SYNGENTA CROP PROTECTION, LLC, priority 2009, published 2012)

Assays:
Type in all cases: in vivo
Plutella xylostella = Plutella xylostella (Diamond Back Moth) artificial diet MTP test; settings: 144 h, 200 ppm (concentration in well 18 ppm), L2 larvae, 6 days, larval mortality, growth regulation
Heliothis virescens = Heliothis virescens (Tobacco Budworm) egg test on artificial diet; settings: 96 h, 200 ppm (concentration in well 18 ppm), eggs 0-24 h old on artificial diet, 4 days, egg mortality, larval mortality, growth regulation
Tetranychus urticae = Tetranychus urticae (Two-Spotted Spider Mite) bean leaf disc spray test; settings: foliar, 192 h, 200 ppm spray on bean leaf discs, mite populations of mixed ages, 8 days, egg, larval and adult mortality, read-out: control of Tetranychus urticae
Spodoptera littoralis = Spodoptera littoralis (Egyptian Cotton Leafworm) cotton leaf disc spray test; settings: foliar, 72 h, 200 ppm spray on cotton leaf discs, L1 larvae, mortality, feeding behavior, growth regulation 3 DAT
Thrips tabaci = Thrips tabaci (Onion Thrips) sunflower leaf disc spray test; settings: foliar, 168 h, 200 ppm spray on sunflower leaf discs, population of mixed ages, 7 days, mortality
Diabrotica balteata = Diabrotica balteata (Corn Root Worm) artificial diet MTP test; settings: 120 h, 200 ppm (concentration in well 18 ppm), L2 larvae, 5 days, larval mortality, growth regulation

Measured: pest or weed control at 200 ppm

COc1c(NC(=O)c2ccc([N+](=O)[O-])cc2Cl)cccc1C(=O)Nc1c(Cl)cc(C(F)(C(F)(F)F)C(F)(F)C(F)(F)F)cc1Br (stereo not shown) [B11]
≥ 80%: Plutella xylostella | Heliothis virescens | Tetranychus urticae | Spodoptera littoralis

COc1c(NC(=O)c2ccc(OC(F)(F)F)cc2)cccc1C(=O)Nc1c(Cl)cc(C(F)(C(F)(F)F)C(F)(F)C(F)(F)F)cc1Br (stereo not shown) [B13]
≥ 80%: Plutella xylostella | Heliothis virescens | Tetranychus urticae | Spodoptera littoralis

COc1c(NC(=O)c2ccc(F)cc2F)cccc1C(=O)Nc1c(Cl)cc(C(F)(C(F)(F)F)C(F)(F)C(F)(F)F)cc1Br (stereo not shown) [B23]
≥ 80%: Plutella xylostella | Heliothis virescens | Tetranychus urticae | Spodoptera littoralis

COc1c(NC(=O)c2ccc(Br)o2)cccc1C(=O)Nc1c(Cl)cc(C(F)(C(F)(F)F)C(F)(F)C(F)(F)F)cc1Br (stereo not shown) [B52]
not listed: Tetranychus urticae
≥ 80%: all other assays above

COc1c(NC(=O)c2cc(C)oc2C)cccc1C(=O)Nc1c(Cl)cc(C(F)(C(F)(F)F)C(F)(F)C(F)(F)F)cc1Br (stereo not shown) [B58]
not listed: Tetranychus urticae
≥ 80%: all other assays above

COc1c(NC(=O)c2cccc(C)c2[N+](=O)[O-])cccc1C(=O)Nc1c(Cl)cc(C(F)(C(F)(F)F)C(F)(F)C(F)(F)F)cc1Br (stereo not shown) [B87]
not listed: Tetranychus urticae
≥ 80%: all other assays above

COc1c(NC(=O)c2sc(C(F)(F)F)nc2C)cccc1C(=O)Nc1c(Cl)cc(C(F)(C(F)(F)F)C(F)(F)C(F)(F)F)cc1Br (stereo not shown) [B104]
≥ 80%: Plutella xylostella | Heliothis virescens | Tetranychus urticae | Spodoptera littoralis

COc1c(NC(=O)c2cc(C(C)(C)C)nn2C)cccc1C(=O)Nc1c(Cl)cc(C(F)(C(F)(F)F)C(F)(F)C(F)(F)F)cc1Br (stereo not shown) [B112]
not listed: Tetranychus urticae
≥ 80%: all other assays above

COc1c(NC(=O)c2ccnc(C(F)(F)F)c2Cl)cccc1C(=O)Nc1c(Cl)cc(C(F)(C(F)(F)F)C(F)(F)C(F)(F)F)cc1Br (stereo not shown) [B115]
not listed: Tetranychus urticae
≥ 80%: all other assays above

COc1c(NC(=O)c2ccc(Br)cc2C)cccc1C(=O)Nc1c(Cl)cc(C(F)(C(F)(F)F)C(F)(F)C(F)(F)F)cc1Br (stereo not shown) [B138]
≥ 80%: Plutella xylostella | Heliothis virescens | Tetranychus urticae | Spodoptera littoralis

COc1c(NC(=O)c2ccc(Br)c(OC)c2C)cccc1C(=O)Nc1c(Cl)cc(C(F)(C(F)(F)F)C(F)(F)C(F)(F)F)cc1Br (stereo not shown) [B139]
≥ 80%: Plutella xylostella | Heliothis virescens | Tetranychus urticae | Spodoptera littoralis

COc1cc(C(=O)Nc2cccc(C(=O)Nc3c(Cl)cc(C(F)(C(F)(F)F)C(F)(F)C(F)(F)F)cc3Br)c2OC)cc(Cl)n1 (stereo not shown) [B146]
not listed: Tetranychus urticae
≥ 80%: all other assays above

COc1c(NC(=O)c2cccc([N+](=O)[O-])c2)cccc1C(=O)Nc1c(Cl)cc(C(F)(C(F)(F)F)C(F)(F)C(F)(F)F)cc1Br (stereo not shown) [B193]
≥ 80%: Plutella xylostella | Heliothis virescens | Tetranychus urticae | Spodoptera littoralis

COc1c(NC(=O)c2ccc([N+](=O)[O-])cc2C)cccc1C(=O)Nc1c(Cl)cc(C(F)(C(F)(F)F)C(F)(F)C(F)(F)F)cc1Br (stereo not shown) [B196]
≥ 80%: Plutella xylostella | Tetranychus urticae | Spodoptera littoralis

COc1c(NC(=O)c2ccccc2F)cccc1C(=O)Nc1c(Cl)cc(C(F)(C(F)(F)F)C(F)(F)C(F)(F)F)cc1Cl (stereo not shown) [C3]
not listed: Tetranychus urticae
≥ 80%: all other assays above

COc1c(NC(=O)c2ccccc2C(F)(F)F)cccc1C(=O)Nc1c(Cl)cc(C(F)(C(F)(F)F)C(F)(F)F)cc1Cl [E18]
not listed: Tetranychus urticae
≥ 80%: all other assays above

COc1c(NC(=O)c2ccc(F)cc2F)cccc1C(=O)Nc1c(Cl)cc(C(F)(C(F)(F)F)C(F)(F)F)cc1Cl [E22]
not listed: Tetranychus urticae
≥ 80%: all other assays above

COc1c(NC(=O)c2ccccc2Cl)cccc1C(=O)Nc1c(C)cc(C(F)(C(F)(F)F)C(F)(F)C(F)(F)F)cc1C (stereo not shown) [F3]
not listed: Tetranychus urticae
≥ 80%: all other assays above

COc1c(NC(=O)c2cccc(F)c2F)cccc1C(=O)Nc1c(C)cc(C(F)(C(F)(F)F)C(F)(F)C(F)(F)F)cc1C (stereo not shown) [F8]
not listed: Tetranychus urticae
≥ 80%: all other assays above

COc1c(NC(=O)c2cccc(F)c2)cccc1C(=O)Nc1c(C)cc(C(F)(C(F)(F)F)C(F)(F)C(F)(F)F)cc1C (stereo not shown) [F20]
not listed: Tetranychus urticae
≥ 80%: all other assays above
